Experiment [1] concerns the target T1, thrombin receptor (PAR-1) (Homo sapiens, UniProt P25116).
T1 construct: CHRF membranes (Jones, Biochim. Biophys. Acta 1992, 1136, 272) are thawed from −70° C; endogenous in cells; host or cells: CHRF cell membranes
T1 sequence (P25116 22-425): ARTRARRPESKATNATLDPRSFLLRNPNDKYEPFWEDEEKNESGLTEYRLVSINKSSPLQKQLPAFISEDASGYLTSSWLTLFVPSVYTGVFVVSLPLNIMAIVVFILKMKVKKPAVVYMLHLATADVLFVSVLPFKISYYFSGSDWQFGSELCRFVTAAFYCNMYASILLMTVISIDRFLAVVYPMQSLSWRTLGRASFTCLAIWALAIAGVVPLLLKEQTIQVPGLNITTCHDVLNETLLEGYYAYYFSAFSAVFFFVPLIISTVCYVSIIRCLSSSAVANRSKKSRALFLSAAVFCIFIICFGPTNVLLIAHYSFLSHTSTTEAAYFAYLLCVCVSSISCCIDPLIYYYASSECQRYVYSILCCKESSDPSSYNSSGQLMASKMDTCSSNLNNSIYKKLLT
Description: In vitro thrombin receptor binding assay (CHRF membranes, tritiated 721-40). The method, then:
In Vitro Thrombin Receptor Binding Assay
CHRF membranes (Jones, Biochim. Biophys. Acta 1992, 1136, 272) are thawed from −70° C., centrifuged at maximum speed for 5 min, washed twice with binding buffer (50 mM HEPES containing 5 mM MgCl2 and 0.1% BSA), and re-suspended in binding buffer ([…]). 100 μL of membranes are added to the 24-Wallac plates and delivered to the Tomtech apparatus. In a typical experiment, 6 μL of samples (from a 125 μg/mL intermediary plate, 20% DMSO) and 44 μL buffer are delivered to the plates (final conc. of compounds is 3.7 μg/mL, 0.6% DMSO). Similarly, 6 μL 20% DMSO and 44 μL buffer are delivered to both column 1 (NSB) and column 12 (TB). 10 μL Ser-pFPhe-Har-Leu-Har-Lys-Tyr-NH2 (721-40; 500 μM in deionized water) is added to column 1. 50 μL tritiated 721-40 (specific activity 46 Ci/mmol) is added to all the wells. The plates are mixed well for 20 seconds, incubated for 30 min, and then harvested with 10 mM HEPES/138 mM NaCl using the Skatron harvester. The filters (GF/C Brandel FPXLR 296) are presoaked 3 h in 0.5% polyethylenimine in HEPES/0.1M N-acetylglucosamine) are set in saran wrap and dried for 3 min in the microwave, and placed in sample bags (Wallac 1450-432). 4.5 mL scintillation fluid (Wallac, Betaplate Scint 1205-440) is added. The bags are sealed, placed in filter cassettes (Wallac 1450-104), and analyzed on the microbeta counter.

Experiment [2] relates to gel-filtered platelets (thrombin-induced aggregation). Put plainly: In vitro inhibition of thrombin-induced gel-filtered platelet aggregation assay. It counts as cell-based. Conditions: platelet aggregation stimulated by thrombin, gel-filtered human platelets, read-out: GFP Aggr. IC50. The method, then: In Vitro Inhibition Of Thrombin-induced Gel-filtered Platelet Aggregation Assay
The percentage of platelet aggregation is calculated as an increase in light transmission of compound-treated platelet concentrate vs. control-treated platelet concentrate. Human blood is obtained from drug free, normal donors in tubes containing 0.13M sodium citrate. Platelet rich plasma (PRP) is collected by centrifugation of whole blood at 200×g for 10 min at 25° C. The PRP (5 mL) is gel filtered through Sepharose 2B (bed volume 50 mL), and the platelet count is adjusted to 2×10^7 platelets per sample. The following constituents are added to a siliconized cuvette: concentrated platelet filtrate and Tyrode's buffer (0.14M NaCl, 0.0027M KCl, 0.012M NaHCO3, 0.76 mM Na2HPO4, 0.0055M glucose, 2 mg/mL BSA and 5.0 mM HEPES @ pH 7.4) in an amount equal to 350 μL, 50 μL of 20 mM calcium and 50 μL of the test compound. Aggregation is monitored in a BIODATA aggregometer for the 3 min following the addition of agonist (thrombin 50 μL of 1 unit/mL).

The mark [3] stands for this setting: Table 1, read-out: Recptr Bdg. IC50.
[4] abbreviates: Table 2, read-out: Recptr Bdg. IC50.

Our source for the IC50 values is patent publication US6365617B1, “Indole and indazole urea-peptoids as thrombin receptor antagonists” (Ortho-McNeil Pharmaceutical, Inc., priority 1999, dated 2002).

Structures are written as SMILES. pIC50: −log10 of the molar value. Where two headings read alike, the source gives them in different places.

In general, pIC50 refers to the negative decadic logarithm of the IC50, by convention in mol/L.

For `NCCN(CC(=O)NCc1ccccc1)C(=O)[C@H](Cc1ccc(F)c(F)c1)NC(=O)Nc1ccc2c(CN3CCCC3)nn(Cc3c(Cl)cccc3Cl)c2c1` [Compound 1], the pIC50 in experiment [1] (setting [3]) is 6.30; in experiment [2] (Table 1), 5.89.

In the case of `NCCN(CC(=O)NCc1ccccc1)C(=O)[C@H](Cc1ccc(F)c(F)c1)NC(=O)Nc1ccc2c(CN3CCCC3)cn(Cc3c(Cl)cccc3Cl)c2c1` [Compound 2], the pIC50 in experiment [1] (setting [3]) is 6.52; in experiment [2] (Table 1), 5.77.

In the case of `NCCCCN(CC(=O)NCc1ccccc1)C(=O)[C@H](Cc1ccc(F)c(F)c1)NC(=O)Nc1ccc2c(CN3CCCC3)nn(Cc3c(Cl)cccc3Cl)c2c1` [Compound 3], the negative logarithm of the IC50 (pIC50) in experiment [1] (setting [3]) was 6.52; in experiment [2] (Table 1), 6.59.

Turning to `NCCCCN(CC(=O)NCc1ccccc1)C(=O)[C@H](Cc1ccc(F)c(F)c1)NC(=O)Nc1ccc2c(CN3CCCC3)cn(Cc3c(Cl)cccc3Cl)c2c1` [Compound 4], the pIC50 in experiment [1] (setting [3]) is 6.66; in experiment [2] (Table 1) it was 6.59.

On to `O=C(CN(Cc1ccccc1)C(=O)[C@H](Cc1ccc(F)c(F)c1)NC(=O)Nc1ccc2c(CN3CCCC3)cn(Cc3c(Cl)cccc3Cl)c2c1)NCc1ccccc1` [Compound 5], for which the negative-log IC50 (pIC50) was 6.42 in experiment [1] (setting [3]) and 4.66 in experiment [2] (Table 1).

Regarding `NCCCN(Cc1cccs1)C(=O)[C@H](Cc1ccc(F)c(F)c1)NC(=O)Nc1ccc2c(CN3CCCC3)cn(Cc3c(Cl)cccc3Cl)c2c1` [Compound 6, Benzene Propanamide, N-(3-aminopropyl)-N-(2-thiophenemethyl)-α-[[[[[1-(2,6-dichlorophenyl)methyl]-3-(1-pyrrolidinylmethyl)-1H-indol-6-yl]amino]carbonyl]amino]-3,4-difluoro-, (αS)-], the values for the pIC50 in experiment [1] (setting [3]) and in experiment [2] (Table 1) were 4.99 and 6.22, respectively.

In the case of `N=C(N)NCCC[C@H](NC(=O)CN(CCCCCN)C(=O)Nc1ccc2c(CN3CCCC3)cn(Cc3c(Cl)cccc3Cl)c2c1)C(=O)NCc1ccccc1` [Compound 13], the values for the pIC50 in experiment [1] (setting [4]) and in experiment [2] (Table 2) were less than 4.00 and 6.00, respectively.

Consider `N=C(N)NCCC[C@H](NC(=O)CN(Cc1ccc(Cl)cc1)C(=O)Nc1ccc2c(CN3CCCC3)cn(Cc3c(Cl)cccc3Cl)c2c1)C(=O)NCc1ccccc1` [Compound 14], for which the negative-log IC50 (pIC50) in experiment [1] (setting [4]) was 5.16; in experiment [2] (Table 2), 5.20.

In the case of `N=C(N)NCCC[C@H](NC(=O)CN(Cc1ccc(F)cc1)C(=O)Nc1ccc2c(CN3CCCC3)cn(Cc3c(Cl)cccc3Cl)c2c1)C(=O)NCc1ccccc1` [Compound 15, N-4-Fluorophenylmethyl-N-{[1-(2,6-dichlorophenyl)methyl-3-(1-pyrrolidinylmethyl)-1H-indol-6-yl]aminocarbonyl}-clycinyl-L-arginin-N-benzyl-amide], the pIC50 in experiment [1] (setting [4]) is 5.09; in experiment [2] (Table 2) it was 5.68.
